# Experimental data: US20190046490A1, “METHODS OF TREATING LACTOSE INTOLERANCE” (Nogra Pharma Limited, priority 2016, published 2019)
# “And” between values parts separate entries of the source, which are not always exact repeats. Equal values may be shown once. “Also recorded” adds a separate entry of the source.
# Experiments:
# LCT activity = experiment: Lactase activity in Caco-2 cells (glucose oxidase method); assay type: cell-based, human; settings: Caco-2 cells, 30 mM
# Protocol: Lactase activity was evaluated by using a glucose oxidase method (Glucose Assay Kit, Sigma). This lactase assay is based on the measurement of the amount of glucose produced following the action of lactase by incubating samples with a lactose buffer solution (0.056 mol/l lactose in a 0.1 mol/l Na-maleate buffer). For Caco-2 cells, lactase activity was determined directly from the cell monolayer. After extensive washing, the cell monolayer was incubated with lactose buffer for one hour at 37° C. The supernatant was recovered, 50 μl were diluted with 100 μl of glucose oxidase reagent and incubated at 37° C. for 1 hour. The reaction was stopped with 100 μl of H2SO4 and read by spectrophotometry at 450 nm. When lactase activity was determined from intestinal sample, tissue samples were first dounce-homogenized in 0.9% NaCl on crushed ice. These homogenates were then diluted in 0.9% NaCl ( 1/500) and 50 μl of dilution were incubated with lactose buffer and used to determine lactase activity. For each experiment, the background attributed to the remaining glucose in the samples was measured by incubating cells or cell extracts in lactose-free buffer.
# LCT mRNA = experiment: Quantitative PCR of LCT mRNA expression in Caco-2 cells; assay type: cell-based, human
# Protocol: (§1) Caco-2 (colonic adenocarcinoma) cells were grown in Dulbecco's Modified Eagle's Medium (DMEM, Invitrogen, Life Technologies, Cergy-Pontoise, France) supplemented with 20% foetal calf serum (FCS, Dutscher, Brumath, France), 1% penicillin-streptomycin (5 ml/l) (Invitrogen, Life technologies) and 1% non-essential amino acids (5 ml/l) (Invitrogen, Life technologies). All cell lines were cultured as confluent monolayers at 37° C. in a controlled, 5% CO2 atmosphere.
# (§2) For cell stimulations, 1×10^6 cells per well were seeded in 6-well plates. Cells were serum deprived for 16 hours prior to stimulation in order to synchronize the cells. Cells were treated with GED (Nogra Pharma Ltd, Ireland), pioglitazone (1 μM, Sigma-Aldrich) or CLA (various concentrations, Sigma-Aldrich). When necessary, the DMSO vehicle (Sigma-Aldrich) was used as control. After 24 hours of stimulation, cells were washed three times with sterile PBS before RNA extraction. Cell stimulations were performed in 4 replicates for microarray analysis and in 3, 4 or 6 replicates for other stimulations.
# (§3) Cells were lysed with lysis buffer (RA1, Macherey-Nagel) containing 1% β-mercaptoethanol. Total RNA was extracted with a Nucleospin RNA kit (Macherey-Nagel, Hoerdt, France). After RNAse inactivation, total RNA was cleaned of genomic DNA traces by DNAse treatment and eluted in RNAse-free, DEPC-water. The purity of the RNA was evaluated by UV spectroscopy on a Nanodrop system (Nyxor Biotech, Paris, France) from 220 to 350 nm. Before microarray experiments, RNAs were also profiled on an Agilent 2100 bioanalyzer. One μg of total RNA with a minimum concentration of 50 ng/μl was used in the microarray and qRT-PCR analysis.
# (§4) Expression of genes of interest was quantified by quantitative PCR (qPCR) of corresponding reverse transcribed mRNA. One μg of total RNA was reverse-transcribed into cDNA using the High Capacity cDNA Archive kit (Applied Biosystems). Amplification was performed using an ABI PRISM 7000 sequence detection system (Applied Biosystem) using Power SYBR® Green PCR master Mix (Applied Biosystem). Primer pairs for each human transcript were chosen with qPrimer depot software (at primerdepot.nci.nih.gov.). Quantification of qPCR signals was performed using ΔCt relative quantification method using GAPDH as a reference gene for human and rat samples and β-Actin for mouse samples. Values were represented in terms of relative quantity of mRNA level variation or fold increase compared to control conditions.
# LCT = LCT mRNA expression and activity in proximal small intestine of rats after oral GED; assay type: in vivo; settings: weaned Sprague-Dawley rats, 30 mg/kg daily by gavage for 7 days
# Protocol: as §4
# Lactase activity was evaluated by using a glucose oxidase method (Glucose Assay Kit, Sigma). […] For Caco-2 cells, lactase activity was determined directly from the cell monolayer. […] The reaction was stopped with 100 μl of H2SO4 and read by spectrophotometry at 450 nm. When lactase activity was determined from intestinal sample, tissue samples were first dounce-homogenized in 0.9% NaCl on crushed ice. […] For each experiment, the background attributed to the remaining glucose in the samples was measured by incubating cells or cell extracts in lactose-free buffer. […]
# LCT gene = experiment: Transcriptome microarray analysis of LCT mRNA expression in Caco-2 cells treated with PPARγ modulators; assay type: cell-based, human; settings: vs unstimulated cells
# Protocol: as §1, §2, §3
# Dual-colour gene expression microarrays were used to compare the cRNA from the samples. 44,000 genes were screened. The RNAs from the samples were first reverse-transcribed into cDNA (Affinity-Script RT, Agilent), which were then used as the substrate for the synthesis and amplification of cRNA by T7 RNA polymerase in the presence of cyanine 3-CTP for the CTL sample (green fluorescence) and cyanine 5-CTP for the PPAR-γ y modulator sample (red fluorescence). The two-labelled cRNAs were mixed, hybridized on the same array (G4851A Agilent 8×44K) and then scanned (with an Agilent G2505B scanner). Fluorescence was visualized after laser excitation and the relative intensities of the two fluorophores were expressed as a ratio, in order to yield the over- or under-expression status of each gene (using GeneSpring software (Agilent)). This analysis was performed for each PPAR-γ modulator.
smiles,measurement,setting,value
"COC(Cc1ccc(N)cc1)C(=O)O (stereo not shown) [GED, 3-(4′-aminophenyl)2-methoxypropionic acid]",LCT activity relative to control cells,LCT activity,significant increase; also recorded: significantly upregulated
same,"LCT mRNA gene expression relative to unstimulated cells, dose-response","LCT mRNA; 0.1 mM, 1 mM, and 30 mM",increased
same,LCT mRNA expression relative to control (qPCR),"LCT mRNA; 30 mM, 24 hours, normalized to GAPDH",Significant increases; also recorded: induction
same,LCT activity in the proximal part of the small intestine,LCT,significantly increased
same,LCT expression in the proximal part of the small intestine,LCT,significantly increased
same,Fold Lactase RNA,LCT gene; 1 mM,5.28 fold and 5.29 fold
same,Fold Lactase RNA,LCT gene; 30 mM,8.28 fold
